In patent publication US5308606A, “Method of treating and/or diagnosing soft tissue tumors” (priority 1991, dated 1994):
Values joined by “and” are separate entries in the source; they are usually repeats but may differ in a detail not shown here. Equal entries are not always repeated. Where two headings read alike, the source gives them in different places.

How the values were obtained:
[1] = in vivo; cited from earlier work
bone [2] = test: Bone uptake, scored from images of miniature pigs by 3 investigators; conditions: average score (0-3) of 3 investigators; head 72 hr, text 24 hour images; one value per pig
Procedure: (§1) Studies to determine the qualitative biodistribution of the various radionuclides were conducted by injecting the compositions into miniature pigs having melanotic lesions, which occur spontaneously. ^67 Ga-citrate was used as the control and was given by the same route of administration as the test samples.
(§2) Each injected solution was from 0.5-1 mL having 1-2 mCi of ^153 Sm present.
(§3) Images of each pig (right lateral, left lateral and dorsal) were taken at 4, 24, 48 and 72 hours. The 24 hour images were evaluated independently by 3 investigators using the following scheme for the uptake of ^153 Sm in various tissues:
1=Slight uptake (negligible)
2=Moderate uptake (intermediate)
(§4) The tissues evaluated were bone, liver and tumor.

tumor = test: Tumor uptake, scored from images of miniature pigs having melanomic lesions by 3 investigators; conditions: for Tumor Uptake (Location): average score (0-3) of 3 investigators
Procedure: as §1, §2, §3
1=Slight uptake (negligible)
2=Moderate uptake (intermediate)
as §4

liver [3] = test: Liver uptake, scored from images of miniature pigs by 3 investigators
Procedure: as §1, §2, §3
1=Slight uptake (negligible)
2=Moderate uptake (intermediate)
as §4

[4] = in vivo; cited from earlier work; remark: listed apart in the source
[5] = Whole body retention in miniature pigs having naturally occurring melanomic lesions
Procedure: as §1
Each injected solution was from 0.5-1 mL having 1-2 mCi of ^153 Sm present. Each pig had whole body counts immediately after injection and again at 24, 48 and 72 hours.
as §3

non-target tissues = conditions: in vivo; cited from earlier work
Ehrlich tumors = conditions: animals bearing Ehrlich tumors; cited from earlier work
liver [6] = conditions: in vivo; cited from earlier work
liver [7] = conditions: pig, in vivo
Procedure: as §1, §2, §3
1=Slight uptake (negligible)
2=Moderate uptake (intermediate)
as §4

bone [8] = conditions: pig, in vivo
Procedure: as §1, §2, §3
1=Slight uptake (negligible)
2=Moderate uptake (intermediate)
as §4

In the case of `O=C([O-])CN(CCN(CC(=O)[O-])CC(=O)[O-])CCN(CC(=O)[O-])CC(=O)[O-].[99Tc+4]` [^99m Tc-DTPA], the “elimination of the radionuclide” value [1] is given as “eliminated from the body by the kidneys into the urine” and the “tissue localization of the radionuclide” value [1] is given as “does not result in the radionuclide localizing in any tissue”.
With `O=C([O-])CC(O)(CC(=O)[O-])C(=O)[O-].[67Ga+3]` [B] the “Bone Uptake (72 hr)” value (bone [2]) was 1.00, the “Tumor Uptake (Location)” value (tumor; Draining node) was 1.67 and the “Tumor Uptake (Location)” value (tumor; Left head) was 3.00. For the same compound, the “Tumor Uptake (Location)” value (tumor; Left sacrum) was 0.00, the “Tumor Uptake (Location)” value (tumor; Right head) was 0.33 and the “Tumor Uptake (Location)” value (tumor; Right stifle) was 2.00. The “Tumor Uptake (Location)” value (tumor; Right thorax) was 3.00, the tumor image (tumor; miniature pigs, relative to background radiation) was “almost indistinguishable from the high background radiation” and the “Liver Uptake (72 hrs)” value (liver [3]; average score (0-3) of 3 investigators, head 72 hrs, text 24 hour images, one value per pig) was 3.00. The liver uptake (liver [3]; miniature pigs, in words) was “unacceptably large liver uptake”, the “rate of blood clearance” value [4] was “slow” and the “% Whole Body Retention (72 hrs.)” value ([5]; 72 hrs, L/M ratio 20 (A), 257 (1), one value per pig) was 98.5 % of injected dose and 96.7 % of injected dose and 97.1 % of injected dose. The “clearance of the extra-cellular fluid” value ([5]; in words) was “never cleared the extra-cellular fluid” and the “uptake in non-target tissues” value (non-target tissues) was “high uptake”.
For ^99m Tc-ethylenediaminediacetic acid, the imaging of tumors (Ehrlich tumors) is given as “could be used to image tumors”.
In the case of `[Cl][153Sm]([Cl])[Cl]` [^153 Sm-chloride], the liver uptake (liver [6]) is given as “high liver uptake”.
In the case of `CC(=O)Nc1cc(CN(CC(=O)O)CC(=O)O)c(O)c(CN(CC(=O)O)CC(=O)O)c1.[153Sm+3]` [Example 1], the “Liver Uptake (72 hrs)” value (liver [7]) is reported as 1.00 and the “Bone Uptake (72 hr)” value (bone [8]) is reported as 3.00.
In the case of ^153 Sm-citrate, the liver uptake (liver [6]) is given as “high liver uptake”.
